Results published in patent publication US20260315464A1, “COMPOSITIONS, METHODS, AND SYSTEMS FOR MODULATING SPLICING OF MSH3” (REVIR THERAPEUTICS, INC., priority 2023, published 2026).

System: MSH3
Experiment: QPCR assay for levels of MSH3 upon compound treatment in HEK293T or AD293 cells (fold-change of MSH3 transcript, EC50 of MSH3 downregulation; total MSH3 exons 13/14, exons 20/21; Table 8)
Type: cell-based
Settings: Homo sapiens, fold-change of the MSH3 transcript, normalized to GAPDH; for mrna remaining at 1 µM: 1 μM compound; for mrna remaining at 10 µM: 10 μM compound
In short: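 HEK293T or AD293 cells were treated at 1 μM and […]; RNA-to-cDNA qPCR used TaqMan assays for total MSH3 (exons 13/14, exons 20/21) and poison-exon junctions exon 13/PE14A and exon 20/PE21A. Transcript levels were normalized to GAPDH.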

Question: What does the source list for `COc1cc(-c2nn(C)nc2C)cc2c1CN(c1ccc(OC3CC(C)(C)NC(C)(C)C3)nn1)C2=O` [Compound 688, 6-(2,5-dimethyl-2H-1,2,3-triazol-4-yl)-4-methoxy-2-(6-((2,2,6,6-tetramethylpiperidin-4-yl)oxy)pyridazin-3-yl)isoindolin-1-one]?
Answer: mrna remaining at 1 µM: 123%; mrna remaining at 10 µM: 86%

Question: How did the mrna remaining at 1 µM turn out when `Cn1nc(Cl)c(-c2cnc3c(c2)C(=O)N(c2ccc(OC4CC(C)(C)NC(C)(C)C4)nn2)C3)n1` [Compound 493, 3-(5-chloro-2-methyl-2H-1,2,3-triazol-4-yl)-6-(6-((2,2,6,6-tetramethylpiperidin-4-yl)oxy)pyridazin-3-yl)-6,7-dihydro-5H-pyrrolo[3,4-b]pyridin-5-one] was run?
Answer: Its mrna remaining at 1 µM is 57%.

Question: And the mrna remaining at 10 µM?
Answer: Its mrna remaining at 10 µM is 13%.

Question: For `Cc1nn(C)cc1-c1cnc2c(c1)C(=O)N(c1cnc(N(C)[C@H]3C[C@]4(C)CC[C@](C)(C3)N4)nn1)C2` [Compound 175, 3-(1,3-dimethyl-1H-pyrazol-4-yl)-6-(3-(((1R,3s,5S)-1,5-dimethyl-8-azabicyclo[3.2.1]octan-3-yl)(methyl)amino)-1,2,4-triazin-6-yl)-6,7-dihydro-5H-pyrrolo[3,4-b]pyridin-5-one], which mrna remaining at 1 µM is on record?
Answer: The mrna remaining at 1 µM was 93%.

Question: What about the mrna remaining at 10 µM of the same compound?
Answer: Its mrna remaining at 10 µM is 70%.

Question: How did the mrna remaining at 1 µM turn out when `Cn1nc(Cl)c(-c2cnc3c(n2)C(=O)N(c2ccc(OC4CC(C)(C)NC5(CCC5)C4)nn2)C3)n1` (stereo not drawn) [Compound 628, 3-(5-chloro-2-methyl-2H-1,2,3-triazol-4-yl)-6-(6-((6,6-dimethyl-5-azaspiro[3.5]nonan-8-yl)oxy)pyridazin-3-yl)-6,7-dihydro-5H-pyrrolo[3,4-b]pyrazin-5-one] was run?
Answer: The mrna remaining at 1 µM was 101%.

Question: What about the mrna remaining at 10 µM of the same compound?
Answer: Its mrna remaining at 10 µM is 20%.

Question: Which mrna remaining at 1 µM does the source give for `Cn1cc(-c2cc3c(cn2)CN(c2ccc(O[C@H]4C[C@]5(C)CC[C@](C)(C4)N5)nn2)C3=O)cn1` [Compound 99, 2-(6-(((1R,3s,5S)-1,5-dimethyl-8-azabicyclo[3.2.1]octan-3-yl)oxy)pyridazin-3-yl)-6-(1-methyl-1H-pyrazol-4-yl)-2,3-dihydro-1H-pyrrolo[3,4-c]pyridin-1-one] here?
Answer: The mrna remaining at 1 µM was 90%.

Question: And the mrna remaining at 10 µM?
Answer: The mrna remaining at 10 µM was 86%.

Question: For `CC(C)(O)Cn1cc(-c2cc3c(cn2)CN(c2ccc(O[C@H]4C[C@]5(C)CC[C@](C)(C4)N5)nn2)C3=O)cn1` [Compound 594, 2-(6-(((1R,3s,5S)-1,5-dimethyl-8-azabicyclo[3.2.1]octan-3-yl)oxy)pyridazin-3-yl)-6-(1-(2-hydroxy-2-methylpropyl)-1H-pyrazol-4-yl)-2,3-dihydro-1H-pyrrolo[3,4-c]pyridin-1-one], which mrna remaining at 1 µM is on record?
Answer: Its mrna remaining at 1 µM is 79%.

Question: What about the mrna remaining at 10 µM of the same compound?
Answer: Its mrna remaining at 10 µM is 112%.

Question: For `Cn1ncc(-c2cc3c(c(Cl)n2)CN(c2ccc(O[C@H]4C[C@]5(C)CC[C@](C)(C4)N5)nn2)C3=O)n1` [Compound 106, 4-chloro-2-(6-(((1R,3s,5S)-1,5-dimethyl-8-azabicyclo[3.2.1]octan-3-yl)oxy)pyridazin-3-yl)-6-(2-methyl-2H-1,2,3-triazol-4-yl)-2,3-dihydro-1H-pyrrolo[3,4-c]pyridin-1-one], which mrna remaining at 1 µM is on record?
Answer: The mrna remaining at 1 µM was 121%.

Question: What about the mrna remaining at 10 µM of the same compound?
Answer: The mrna remaining at 10 µM was 130%.

Question: `Cc1nn(C)cc1-c1cc2c(cn1)CN(c1ccc(N(C)C3CC(C)(C)NC(C)(C)C3)nn1)C2=O` [Compound 51, 6-(1,3-dimethyl-1H-pyrazol-4-yl)-2-(6-(methyl(2,2,6,6-tetramethylpiperidin-4-yl)amino)pyridazin-3-yl)-2,3-dihydro-1H-pyrrolo[3,4-c]pyridin-1-one] was tested. Which mrna remaining at 1 µM did it give?
Answer: Its mrna remaining at 1 µM is 94%.

Question: What about the mrna remaining at 10 µM of the same compound?
Answer: Its mrna remaining at 10 µM is 26%.

Question: `Cc1nn(C)cc1-c1cnc2c(c1)C(=O)N(c1ccc(O[C@@H]3C[C@@]4(C)CC[C@](C)(N4)[C@@H]3F)nn1)C2` [Compound 214, 3-(1,3-dimethyl-1H-pyrazol-4-yl)-6-(6-(((1S,2S,3R,5R)-2-fluoro-1,5-dimethyl-8-azabicyclo[3.2.1]octan-3-yl)oxy)pyridazin-3-yl)-6,7-dihydro-5H-pyrrolo[3,4-b]pyridin-5-one] was tested. Which mrna remaining at 1 µM did it give?
Answer: Its mrna remaining at 1 µM is 95%.

Question: And the mrna remaining at 10 µM?
Answer: The mrna remaining at 10 µM was 24%.
